Like-named read-outs stand apart in the source and are kept apart here.

We go through 26 compounds from paper PMC9457746, “Synthesis of Sulfonamides Incorporating Piperidinyl-Hydrazidoureido and Piperidinyl-Hydrazidothioureido Moieties and Their Carbonic Anhydrase I, II, IX and XII Inhibitory Activity” (Molecules, 2022).

In one data set the target is hCA I (Homo sapiens, UniProt P00915). The data set can be described thus: stopped flow CO2 hydrase assay, hCA I inhibition.
In another data set the target is hCA II (Homo sapiens, UniProt P00918). The data set can be described thus: stopped flow CO2 hydrase assay, hCA II inhibition.
In the next data set the target is hCA IX (Homo sapiens, UniProt Q16790). As to the kind of experiment: stopped flow CO2 hydrase assay, hCA IX inhibition.
The next data set concerns the target hCA XII (Homo sapiens, UniProt O43570). The data set can be described thus: stopped flow CO2 hydrase assay, hCA XII inhibition.
Setting [1] is: read-out: Ki (nM) hCAI, Table 2, thioureas 6a-y, recombinant enzyme, 15 min preincubation, mean of at least three determinations.
Where [2] appears, read: read-out: Ki (nM) hCAII, Table 2, thioureas 6a-y, recombinant enzyme, 15 min preincubation, mean of at least three determinations.
Where [3] appears, read: read-out: Ki (nM) hCAIX, Table 2, thioureas 6a-y, recombinant enzyme, 15 min preincubation, mean of at least three determinations.
The mark [4] stands for this setting: read-out: Ki (nM) hCAXII, Table 2, thioureas 6a-y, recombinant enzyme, 15 min preincubation, mean of at least three determinations.

Sequence of hCA I (P00915 whole entry): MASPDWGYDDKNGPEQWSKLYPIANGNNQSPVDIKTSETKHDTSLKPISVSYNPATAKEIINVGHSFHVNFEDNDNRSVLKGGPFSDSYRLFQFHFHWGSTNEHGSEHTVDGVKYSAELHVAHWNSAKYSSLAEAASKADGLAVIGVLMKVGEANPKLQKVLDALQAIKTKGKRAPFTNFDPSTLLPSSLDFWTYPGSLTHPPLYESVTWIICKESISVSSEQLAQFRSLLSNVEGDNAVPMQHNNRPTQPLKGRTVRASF
Sequence of hCA XII (O43570 25-354): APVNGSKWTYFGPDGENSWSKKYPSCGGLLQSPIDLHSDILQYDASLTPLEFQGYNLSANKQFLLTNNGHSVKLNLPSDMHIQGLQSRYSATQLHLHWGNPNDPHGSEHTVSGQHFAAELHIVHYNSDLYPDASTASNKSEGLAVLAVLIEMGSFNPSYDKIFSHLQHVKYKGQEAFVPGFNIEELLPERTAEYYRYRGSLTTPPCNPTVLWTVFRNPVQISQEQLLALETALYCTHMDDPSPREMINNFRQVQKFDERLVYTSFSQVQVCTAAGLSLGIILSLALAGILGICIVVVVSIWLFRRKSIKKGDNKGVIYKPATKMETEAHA
Procedure for hCA II: (§1) An Applied Photophysics stopped-flow instrument has been used for assaying the CA catalyzed CO2 hydration activity using the Khalifah procedure [23]. The used indicator was phenol red (0.2 mM), the absorbance maximum was of 557 nm, and the buffer was 20 mM Hepes (pH 7.5), whereas 20 mM Na2SO4 were employed for maintaining the ionic strength constant. […] Uncatalyzed rates were subtracted from the observed total rates. […] Inhibitor and enzyme solutions were preincubated together for 15 min, for assuring the formation of the E–I complex. The inhibition constants were obtained by non-linear least squares using the Cheng–Prusoff equation, as reported earlier [24, 25, 26] and represent the mean from at least three different determinations.
Procedure for hCA IX: as §1
Procedure for hCA XII: as §1

In the case of “2-(1-(3-sulfamoylbenzoyl)piperidine-4-carbonyl)-N-(p-tolyl)hydrazine-1-carbothioamide [Compound 6s]”, the Ki worked out at 56.5 nM at hCA I (setting [1]), 4.3 nM on hCA II (setting [2]), 9.3 nM on hCA IX (setting [3]) and 2.6 nM at hCA XII (setting [4]). Also, the “increase in hCA II activity as compared to the 2-methyl analog” value on hCA II (versus 6r) is “about 8 fold”. The “increase in hCA XII activity as compared to the 2-methyl analog” value on hCA XII (versus 6r) was “about 8 fold”.

As for “2-(1-(3-sulfamoylbenzoyl)piperidine-4-carbonyl)-N-(p-tolyl)hydrazine-1-carbothioamide [Compound 6t]”, the Ki was determined as 613 nM at hCA I (setting [1]), 58 nM at hCA II (setting [2]), 28.4 nM on hCA IX (setting [3]) and 31 nM at hCA XII (setting [4]).

With “4-(4-(4-(4-(Trifluoromethyl)phenyl)piperazine-1-carbonyl)piperidine-1-carbonyl)benzenesulfonamide [Compound 6c]”, the Ki on hCA IX (setting [3]) was found to be 7.2 nM; on hCA XII (setting [4]), 4.5 nM.

On to `NS(=O)(=O)c1ccc(C(=O)N2CCC(C(=O)NNC(=O)Nc3ccccc3)CC2)cc1` [Compound 5a], for which the Ki was determined as 93.3 nM at hCA I, 29.3 nM at hCA II, 16.5 nM at hCA IX and 22.8 nM at hCA XII.

`NS(=O)(=O)c1ccc(C(=O)N2CCC(C(=O)NNC(=O)Nc3ccccc3Cl)CC2)cc1` [Compound 5b, N-(2-Chlorophenyl)-2-(1-(4-sulfamoylbenzoyl)piperidine-4-carbonyl)hydrazinecarboxamide] returned a melting point of 214 to 215 °C. This compound also came in with a Ki on hCA I of 164 nM. Also, on hCA II, the inhibition constant Ki was found to be 15.3 nM. The Ki at hCA IX was 25.1 nM. The compound further gave a Ki at hCA XII of 13.6 nM.

For the compound `NS(=O)(=O)c1ccc(C(=O)N2CCC(C(=O)NNC(=O)Nc3cccc(Cl)c3)CC2)cc1` [Compound 5c], the Ki was 218 nM at hCA I, 5.1 nM at hCA II, 37.8 nM on hCA IX and 44.6 nM at hCA XII.

With `NS(=O)(=O)c1ccc(C(=O)N2CCC(C(=O)NNC(=O)Nc3ccc(Cl)cc3)CC2)cc1` [Compound 5d, N-(4-Chlorophenyl)-2-(1-(4-sulfamoylbenzoyl)piperidine-4-carbonyl)hydrazinecarboxamide], the melting point fell in the range of 209 to 210 °C. The compound further yielded a Ki at hCA I of 447 nM. The compound also displayed a Ki on hCA II of 109 nM. Besides, at hCA IX, the affinity, expressed as Ki, was 93.7 nM. In addition, affinity on hCA XII was put at a Ki of 101 nM.

On to `NS(=O)(=O)c1ccc(C(=O)N2CCC(C(=O)NNC(=O)Nc3c(Cl)cccc3Cl)CC2)cc1` [Compound 5e], for which the Ki at hCA I was 259 nM; on hCA II it was 68.8 nM; on hCA IX it was 28.9 nM; on hCA XII, 16.4 nM.

`NS(=O)(=O)c1ccc(C(=O)N2CCC(C(=O)NNC(=O)Nc3ccccc3F)CC2)cc1` [Compound 5f, N-(2-fluorophenyl)-2-(1-(4-sulfamoylbenzoyl)piperidine-4-carbonyl)hydrazinecarboxamide]: the melting point fell in the range of 229 to 230 °C. In addition, the affinity at hCA I, expressed as Ki, was 562 nM. In addition, the affinity at hCA II, expressed as Ki, was 24.6 nM. At hCA IX, this compound returned a Ki of 22.5 nM. The compound further came in with a Ki at hCA XII of 8.4 nM.

`NS(=O)(=O)c1ccc(C(=O)N2CCC(C(=O)NNC(=O)Nc3cccc(F)c3)CC2)cc1` [Compound 5g, N-(3-fluorophenyl)-2-(1-(4-sulfamoylbenzoyl)piperidine-4-carbonyl)hydrazinecarboxamide] registered a melting point of 214 to 215 °C. Also, on hCA I, affinity was put at a Ki of 277 nM. On hCA II, this compound had an inhibitory constant (Ki) of 17.7 nM. Affinity on hCA IX was put at a Ki of 89.7 nM. The same compound had a Ki on hCA XII of 19.4 nM.

For the compound `NS(=O)(=O)c1ccc(C(=O)N2CCC(C(=O)NNC(=O)Nc3ccc(F)cc3)CC2)cc1` [Compound 5h], the Ki at hCA I is 60.6 nM; at hCA II it was 12.1 nM; at hCA IX it was 2.1 nM; at hCA XII, 24 nM.

Compound `NS(=O)(=O)c1ccc(C(=O)N2CCC(C(=O)NNC(=O)Nc3c(F)cccc3F)CC2)cc1` [Compound 5i, N-(2,6-difluorophenyl)-2-(1-(4-sulfamoylbenzoyl)piperidine-4-carbonyl)hydrazinecarboxamide] displayed a melting point of 194 to 195 °C. Besides, the affinity on hCA I, expressed as Ki, was 184 nM. Also, the affinity at hCA II, expressed as Ki, was 8.6 nM. On hCA IX, this compound registered an inhibition constant Ki of 10.1 nM. This compound came in with a Ki at hCA XII of 12.7 nM.

Compound `Cc1ccccc1NC(=O)NNC(=O)C1CCN(C(=O)c2ccc(S(N)(=O)=O)cc2)CC1` [Compound 5j, 2-(1-(4-Sulfamoylbenzoyl)piperidine-4-carbonyl)-N-(o-tolyl)hydrazinecarboxamide] displayed a melting point of 238 to 240 °C. For the same compound, the Ki at hCA I was 67.6 nM. The compound further came in with an inhibition constant Ki at hCA II of 25.4 nM. In addition, the Ki at hCA IX came to 34.5 nM. For the same compound, the Ki on hCA XII was 60.4 nM.

In the case of `Cc1cccc(NC(=O)NNC(=O)C2CCN(C(=O)c3ccc(S(N)(=O)=O)cc3)CC2)c1` [Compound 5k, 2-(1-(4-Sulfamoylbenzoyl)piperidine-4-carbonyl)-N-(m-tolyl)hydrazinecarboxamide], the melting point was in the range of 222 to 225 °C. This compound also returned a Ki at hCA I of 94.5 nM. In addition, the Ki at hCA II is 114 nM. This compound returned a Ki on hCA IX of 8.2 nM. The Ki at hCA XII worked out at 15.6 nM.

As to `Cc1ccc(NC(=O)NNC(=O)C2CCN(C(=O)c3ccc(S(N)(=O)=O)cc3)CC2)cc1` [Compound 5l], the Ki on hCA I worked out at 81.7 nM; at hCA II, 22 nM; on hCA IX, 8.1 nM; at hCA XII, 36.7 nM.

As to `Cc1cccc(C)c1NC(=O)NNC(=O)C1CCN(C(=O)c2ccc(S(N)(=O)=O)cc2)CC1` [Compound 5m, N-(2,6-Dimethylphenyl)-2-(1-(4-sulfamoylbenzoyl)piperidine-4-carbonyl)hydrazinecarboxanide], the melting point fell in the range of 212 to 213 °C. Moreover, the inhibitory constant (Ki) on hCA I was 364 nM. The compound also showed a Ki at hCA II of 62.1 nM. On hCA IX, this compound displayed a Ki of 25.1 nM. This compound gave a Ki at hCA XII of 51.2 nM.

`Cc1cc(C)cc(NC(=O)NNC(=O)C2CCN(C(=O)c3ccc(S(N)(=O)=O)cc3)CC2)c1` [Compound 5n, N-(3,5-Dimethylphenyl)-2-(1-(4-sulfamoylbenzoyl)piperidine-4-carbonyl)hydrazinecarboxamide] returned a melting point of 216 to 217 °C. Further, at hCA I, the affinity, expressed as Ki, was 165 nM. Further, the Ki at hCA II turned out to be 47.8 nM. In addition, the affinity on hCA IX corresponds to a Ki of 34.4 nM. Also, the Ki on hCA XII worked out at 44.7 nM.

Regarding `COc1ccccc1NC(=O)NNC(=O)C1CCN(C(=O)c2ccc(S(N)(=O)=O)cc2)CC1` [Compound 5o], the melting point was 219 to 220 °C. Further, the Ki on hCA I is 451 nM. The same compound came in with a Ki at hCA II of 185 nM. The Ki at hCA IX amounted to 8.6 nM. In addition, affinity at hCA XII was put at a Ki of 19.6 nM.

`COc1cccc(NC(=O)NNC(=O)C2CCN(C(=O)c3ccc(S(N)(=O)=O)cc3)CC2)c1` [Compound 5p, (3-Methoxyphenyl)-2-(1-(4-sulfamoylbenzoyl)piperidine-4-carbonyl)hydrazinecarboxamide] returned a melting point of 218 to 220 °C. The compound also returned a Ki at hCA I of 281 nM. The same compound showed a Ki at hCA II of 45.6 nM. Further, at hCA II (versus methoxy analogs 5o/5q), the “increase of activity on hCA II on shifting the methoxy group into 3-position” value is listed as “about 2 fold”. Further, at hCA IX, the inhibitory constant (Ki) was found to be 24 nM. For the same compound, at hCA XII, the Ki was 17 nM.

For `COc1ccc(NC(=O)NNC(=O)C2CCN(C(=O)c3ccc(S(N)(=O)=O)cc3)CC2)cc1` [Compound 5q], the melting point was 228 to 230 °C. Moreover, the inhibition constant Ki at hCA I is 487 nM. For the same compound, on hCA II, the Ki is 99.7 nM. This compound also gave a Ki on hCA IX of 8.9 nM. In addition, affinity at hCA XII was put at a Ki of 9.1 nM.

In the case of `COc1ccc(NC(=O)NNC(=O)C2CCN(C(=O)c3ccc(S(N)(=O)=O)cc3)CC2)c(OC)c1` [Compound 5r], the Ki at hCA I amounted to 322 nM; at hCA II, 19.8 nM; on hCA IX it was 23.2 nM; at hCA XII, 15.6 nM.

`NS(=O)(=O)c1ccc(C(=O)N2CCC(C(=O)NNC(=O)NCc3ccccc3)CC2)cc1` [Compound 5t]: the Ki was determined as 77.8 nM on hCA I, 48.2 nM at hCA II, 40 nM on hCA IX and 20.1 nM at hCA XII.

`COc1ccc(CNC(=O)NNC(=O)C2CCN(C(=O)c3ccc(S(N)(=O)=O)cc3)CC2)cc1` [Compound 5u]: the Ki on hCA I stood at 130 nM; at hCA II it was 40.7 nM; at hCA IX, 45.3 nM; at hCA XII it was 6.4 nM. Further, the “selectivity for hCAXII compared with hCAII and hCAIX” value at hCA XII (hCA XII versus hCA II and hCA IX) is given as “about 6 fold”.

In turn, `NS(=O)(=O)c1ccc(C(=O)N2CCC(C(=O)NNC(=S)Nc3ccccc3)CC2)cc1` [Compound 6a, N-phenyl-2-(1-(4-sulfamoylbenzoyl)piperidine-4-carbonyl)hydrazine-1-carbothioamide] showed a melting point of 210 to 211 °C. Moreover, the inhibition constant (Ki) on hCA I stood at 30.1 nM. The compound further showed a Ki on hCA II of 26.5 nM. This compound came in with a Ki at hCA IX of 28.8 nM. Affinity at hCA XII was put at a Ki of 3.2 nM. Moreover, the “selectivity of hCA XII inhibition on hCA I and hCA II” value at hCA XII (hCA XII versus hCA I and hCA II) is listed as “about 8 fold”.

As to `NS(=O)(=O)c1ccc(C(=O)N2CCC(C(=O)NNC(=S)Nc3cccc(F)c3)CC2)cc1` [Compound 6o, N-(3-Fluorophenyl)-2-(1-(4-sulfamoylbenzoyl)piperidine-4-carbonyl)hydrazinecarbothioamide], the Ki at hCA I was 590 nM; on hCA II, 102 nM; at hCA IX (setting [3]), 5.6 nM.

As to “N-(1-Phenylethyl)-2-(1-(4-sulfamoylbenzoyl)piperidine-4-carbonyl)hydrazinecarbothioamide [Compound 6x]”, the Ki at hCA I (setting [1]) amounted to 76.6 nM; on hCA II (setting [2]), 7.6 nM; at hCA IX (setting [3]), 2.9 nM; on hCA XII (setting [4]), 10.4 nM.

A word on the Ki: it is the dissociation constant of the complex between target and ligand, obtained from inhibition or displacement. For orientation: melting point means the temperature of the solid-liquid transition.
